According to ChEMBL document CHEMBL1201862, “PubChem BioAssay data set” (2004):
pIC50: −log10 of the molar value. Activity calls are given as the source filed them.

How the values were obtained:
[1] = target: Luciferin 4-monooxygenase (Photinus pyralis, UniProt P08659); assay: Counter Screen for Luciferase-based Assay Positives. [Related pubchem assays: 620, 618, 411 ]
[2] = target: T1, DNA repair and recombination protein RAD54-like (Homo sapiens, UniProt Q92698); assay: RAD54 Holliday junction migration blockers – biochemical, fluorescence, cherry-picked samples, dose series, confirmation (AID 651657); format: functional
T1 sequence (Q92698 whole entry): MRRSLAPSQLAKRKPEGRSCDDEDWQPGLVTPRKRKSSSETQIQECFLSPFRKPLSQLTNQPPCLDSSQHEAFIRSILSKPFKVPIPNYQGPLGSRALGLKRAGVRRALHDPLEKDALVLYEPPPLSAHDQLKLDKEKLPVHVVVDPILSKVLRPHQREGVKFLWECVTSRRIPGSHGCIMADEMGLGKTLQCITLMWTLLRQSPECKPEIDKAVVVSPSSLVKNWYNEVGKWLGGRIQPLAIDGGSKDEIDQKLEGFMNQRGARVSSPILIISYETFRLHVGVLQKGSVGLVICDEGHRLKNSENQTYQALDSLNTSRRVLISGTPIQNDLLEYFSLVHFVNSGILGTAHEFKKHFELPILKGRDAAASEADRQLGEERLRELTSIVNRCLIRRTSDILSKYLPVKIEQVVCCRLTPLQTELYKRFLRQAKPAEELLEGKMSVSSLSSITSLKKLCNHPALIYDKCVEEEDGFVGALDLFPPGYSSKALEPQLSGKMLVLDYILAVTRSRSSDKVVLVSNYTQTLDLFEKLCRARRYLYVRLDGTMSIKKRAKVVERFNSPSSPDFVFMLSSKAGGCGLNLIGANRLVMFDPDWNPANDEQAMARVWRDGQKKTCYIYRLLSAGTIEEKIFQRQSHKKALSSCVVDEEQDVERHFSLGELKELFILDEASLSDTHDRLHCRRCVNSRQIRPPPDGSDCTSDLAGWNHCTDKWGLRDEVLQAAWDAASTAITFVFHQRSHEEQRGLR

[3] = target: Epstein-Barr nuclear antigen 1 (Epstein-Barr virus (strain B95-8) (HHV-4) (Human herpesvirus 4), UniProt P03211); assay: inhibition of EBV nuclear antigen 1 DNA binding – biochemical, fluorescence polarization, 1536-well, dose response (AID 2381); set-up: species or system human gammaherpesvirus 4;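 further: fluorescence polarization of a Cy5 DNA probe bound by EBNA-1 protein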
[4] = target: Lytic switch protein BZLF1 (Epstein-Barr virus (strain B95-8) (HHV-4) (Human herpesvirus 4), UniProt P03206); assay: inhibition of BZLF1 ZTA DNA binding – biochemical, fluorescence polarization, Epstein-Barr virus, 1536-well, counter-screen for EBNA-1 inhibitor project, dose response (AID 2377); set-up: species or system human gammaherpesvirus 4;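 further: fluorescence polarization of Cy5-labelled ZRE DNA probe bound by purified Zta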
[5] = target: T2, Oxysterols receptor LXR-beta (Homo sapiens, UniProt P55055); format: functional, cell-based;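 further: agonist activity at LXR measured by a cell-based luminescence readout across a dose range, run as a counterscreen for daf-12 agonists; HEK293 cells with Gal4-LXR fusion and GAL4-driven luciferase reporter; potency for activation of Gal4-LXR reporter so compounds are agonists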
T2 sequence (P55055 whole entry): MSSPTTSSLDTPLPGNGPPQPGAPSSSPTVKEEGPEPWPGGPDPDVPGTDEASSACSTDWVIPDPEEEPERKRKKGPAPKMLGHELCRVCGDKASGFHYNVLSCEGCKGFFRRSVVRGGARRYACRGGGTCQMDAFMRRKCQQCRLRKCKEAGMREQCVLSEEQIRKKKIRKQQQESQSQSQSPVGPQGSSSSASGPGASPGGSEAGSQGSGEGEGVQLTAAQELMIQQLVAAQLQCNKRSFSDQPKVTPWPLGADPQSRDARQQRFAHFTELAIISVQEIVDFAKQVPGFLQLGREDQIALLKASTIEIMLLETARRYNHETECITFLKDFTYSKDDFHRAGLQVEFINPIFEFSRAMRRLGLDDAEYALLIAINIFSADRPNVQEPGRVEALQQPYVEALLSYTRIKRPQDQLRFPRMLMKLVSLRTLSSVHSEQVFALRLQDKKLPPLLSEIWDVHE

[6] = target: Sphingosine 1-phosphate receptor 2 (Homo sapiens, UniProt O95136); assay: Dose Response Cell-Based Assay for Agonists of the Sphingosine 1-Phosphate Receptor 2 (S1P2): Purchased Analogues. [Related pubchem assays: 1192, 373, 439 ]; format: functional
[7] = target: Sphingosine 1-phosphate receptor 1 (Homo sapiens, UniProt P21453); assay: Dose Response Cell-Based Assay for Agonists of the Sphingosine 1-Phosphate Receptor 1 (S1P1): Purchased Analogues. [Related pubchem assays: 1192, 373, 439 ]; format: functional
[8] = target: Sphingosine 1-phosphate receptor 3 (Homo sapiens, UniProt Q99500); assay: Dose Response Cell-Based Assay for Agonists of the Sphingosine 1-Phosphate Receptor 3 (S1P3): Purchased Analogues. [Related pubchem assays: 373, 439 ]; format: functional
[9] = target: T3, Estrogen receptor (Homo sapiens, UniProt P03372); assay: blockers of SRC-3 recruitment to ERα – biochemical, ELISA, streptavidin-HRP readout, orthogonal assay, confirmation (AID 1079)
T3 sequence (P03372 whole entry): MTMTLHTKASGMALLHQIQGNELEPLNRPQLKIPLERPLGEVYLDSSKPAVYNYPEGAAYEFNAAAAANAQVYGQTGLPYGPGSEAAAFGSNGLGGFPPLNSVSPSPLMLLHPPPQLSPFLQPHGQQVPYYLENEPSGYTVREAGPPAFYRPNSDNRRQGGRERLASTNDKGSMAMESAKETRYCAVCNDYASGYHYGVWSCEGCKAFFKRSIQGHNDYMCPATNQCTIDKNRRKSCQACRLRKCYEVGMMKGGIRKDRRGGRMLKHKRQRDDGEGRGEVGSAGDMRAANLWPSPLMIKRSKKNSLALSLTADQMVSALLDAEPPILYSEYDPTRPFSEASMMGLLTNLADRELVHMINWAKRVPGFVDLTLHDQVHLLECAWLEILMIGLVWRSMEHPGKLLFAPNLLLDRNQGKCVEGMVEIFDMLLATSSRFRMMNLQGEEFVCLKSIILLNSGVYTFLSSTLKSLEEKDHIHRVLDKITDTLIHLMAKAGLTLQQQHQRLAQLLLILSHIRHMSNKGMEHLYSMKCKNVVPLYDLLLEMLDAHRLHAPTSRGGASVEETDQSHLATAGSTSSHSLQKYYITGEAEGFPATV

[10] = target: T4, Delta-type opioid receptor (Homo sapiens, UniProt P41143); assay: HTS Image-Based Screen for Antagonists of the DOR Receptor. [Related pubchem assays (depositor defined):AID1777, AID1785, AID1786, AID2133]; format: functional
[11] = target: Mu-type opioid receptor (Homo sapiens, UniProt P35372); assay: HTS Image-Based Screen for Agonists of the MOR Receptor. [Related pubchem assays (depositor defined):AID1777, AID1785, AID1786, AID2133]; format: functional;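 further: imaging of beta-arrestin GFP recruitment into spots after receptor activation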
[12] = tested on: Streptococcus sp. 'group A'; assay: Streptococcus pyogenes SK(-)GAS viability under kanamycin – luminescence, BacTiterGlo, confirmation, counter-screen for streptokinase expression inhibitor project, dose response (AID 1900); format: functional, organism-based
[13] = target: T4, Delta-type opioid receptor; assay: HTS Image-Based Screen for Agonists of the DOR Receptor. [Related pubchem assays (depositor defined):AID1777, AID1786, AID2133]; format: functional
[14] = A Cell Based Secondary Assay To Explore Cytotoxicity of Compounds that Sensitize Mycobacterium Tuberculosis to Beta-Lactam Antibiotics.; format: functional
[15] = target: T5, Beta-galactosidase (Escherichia coli, UniProt Q8VNN2); assay: PubChem AID 485352; format: functional
[16] = tested on: Vero; assay: mammalian cell viability reduction – secondary assay, cytotoxicity control for West Nile virus antiviral project, dose response (AID 1650); format: functional; conditions: Chlorocebus sabaeus
[17] = target: T6, Streptokinase A (Streptococcus pyogenes serotype M1, UniProt P10520); assay: viability-normalized secreted streptokinase activity reduction – plasminogen activation absorbance, OD405, dose response (AID 1914); format: functional, Streptococcus pyogenes M1 GAS;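 further: secreted streptokinase activity via plasminogen activation per viability signal from cell pellet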
T6 sequence (P10520 whole entry): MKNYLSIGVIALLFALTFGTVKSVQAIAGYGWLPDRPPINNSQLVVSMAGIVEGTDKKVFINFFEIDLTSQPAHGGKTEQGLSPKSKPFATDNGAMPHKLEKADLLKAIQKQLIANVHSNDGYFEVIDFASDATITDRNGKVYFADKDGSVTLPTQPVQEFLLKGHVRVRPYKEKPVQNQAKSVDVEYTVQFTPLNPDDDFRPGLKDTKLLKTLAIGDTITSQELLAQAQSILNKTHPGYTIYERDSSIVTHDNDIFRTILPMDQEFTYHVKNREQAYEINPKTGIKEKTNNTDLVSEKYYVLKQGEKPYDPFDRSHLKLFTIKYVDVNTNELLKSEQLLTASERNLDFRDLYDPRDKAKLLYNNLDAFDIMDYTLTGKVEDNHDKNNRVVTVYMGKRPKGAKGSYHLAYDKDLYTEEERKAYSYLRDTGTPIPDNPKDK

[18] = target: T7, Type-1 angiotensin II receptor (Homo sapiens, UniProt P30556); assay: antagonism of angiotensin II type 1 receptor – cell-based, uHTS hits, selectivity assay for APJ receptor antagonist project, dose response (AID 463214); format: functional;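 further: antagonist potency against angiotensin II stimulated AT1 response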
T7 sequence (P30556 whole entry): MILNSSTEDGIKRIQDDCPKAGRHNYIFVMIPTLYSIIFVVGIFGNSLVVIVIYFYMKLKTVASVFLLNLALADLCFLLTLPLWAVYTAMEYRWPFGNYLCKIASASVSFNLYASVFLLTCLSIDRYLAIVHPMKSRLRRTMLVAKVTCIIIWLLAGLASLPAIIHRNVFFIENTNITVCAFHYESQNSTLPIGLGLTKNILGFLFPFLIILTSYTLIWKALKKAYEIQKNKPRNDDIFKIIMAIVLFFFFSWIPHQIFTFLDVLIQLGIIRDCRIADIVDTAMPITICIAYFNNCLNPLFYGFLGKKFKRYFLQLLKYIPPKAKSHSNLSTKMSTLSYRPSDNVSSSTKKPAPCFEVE

[19] = Luminescence Cell-Based Dose Confirmation HTS to Identify Inhibitors of Polyadenylation.; format: functional
[20] = target: T8, Kappa-type opioid receptor (Homo sapiens, UniProt P41145); format: functional
[21] = target: T5, Beta-galactosidase; format: functional
[22] = target: T8, Kappa-type opioid receptor; format: functional; remark: listed apart in the source
[23] = tested on: Streptococcus; assay: GAS UMAA2166 growth inhibition – luminescence, BacTiterGlo, counter-screen for streptokinase expression inhibitor project, dose response (AID 1915); format: functional, organism-based;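 further: potency for reduction of bacterial viability or growth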
[24] = tested on: Vero; assay: cells; format: functional, cell-based; conditions: Chlorocebus sabaeus
[25] = tested on: Vero; assay: cells; format: functional; conditions: Chlorocebus sabaeus
[26] = viability of uninfected HEp-2 cells – cell-based, HTS, cytotoxicity control for RSV inhibitor project, dose response (AID 2410); format: functional; conditions: human respiratory syncytial virus
[27] = Trypanosoma cruzi growth suppression in host cells – NIH3T3 host cells, beta-gal luminescence, confirmation (AID 2044); format: functional, cell-based;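 further: intracellular parasites grown in NIH/3T3 mouse fibroblasts as host cells; luminescent beta-galactosidase reporter signal from transgenic T. cruzi replicating inside host cells; inhibitors lower the luminescence signal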
[28] = Luminescence-based dose response cell-based high throughput screening assay for cytotoxic compounds using the IEC-6 intestinal epithelial cell line. [Related pubchem assays: 1858 (Summary AID.), 1825 (Counterscreen.), 1907 (Confirmation screen.)]; format: functional
[29] = NIH3T3 cell viability loss – ATP luminescence, mouse fibroblasts, counter-screen, dose response (AID 2010); format: functional, cell-based;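 further: cells exposed to compound for about 90 hours before reading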
[30] = target: T9, Rac GTPase-activating protein 1 (Homo sapiens, UniProt Q9H0H5); assay: blockers of MgcRacGAP-driven Rac1 GTP hydrolysis – biochemical, ADP Hunter fluorescence, primary and confirmatory, confirmation (AID 624330); format: functional
T9 sequence (Q9H0H5 whole entry): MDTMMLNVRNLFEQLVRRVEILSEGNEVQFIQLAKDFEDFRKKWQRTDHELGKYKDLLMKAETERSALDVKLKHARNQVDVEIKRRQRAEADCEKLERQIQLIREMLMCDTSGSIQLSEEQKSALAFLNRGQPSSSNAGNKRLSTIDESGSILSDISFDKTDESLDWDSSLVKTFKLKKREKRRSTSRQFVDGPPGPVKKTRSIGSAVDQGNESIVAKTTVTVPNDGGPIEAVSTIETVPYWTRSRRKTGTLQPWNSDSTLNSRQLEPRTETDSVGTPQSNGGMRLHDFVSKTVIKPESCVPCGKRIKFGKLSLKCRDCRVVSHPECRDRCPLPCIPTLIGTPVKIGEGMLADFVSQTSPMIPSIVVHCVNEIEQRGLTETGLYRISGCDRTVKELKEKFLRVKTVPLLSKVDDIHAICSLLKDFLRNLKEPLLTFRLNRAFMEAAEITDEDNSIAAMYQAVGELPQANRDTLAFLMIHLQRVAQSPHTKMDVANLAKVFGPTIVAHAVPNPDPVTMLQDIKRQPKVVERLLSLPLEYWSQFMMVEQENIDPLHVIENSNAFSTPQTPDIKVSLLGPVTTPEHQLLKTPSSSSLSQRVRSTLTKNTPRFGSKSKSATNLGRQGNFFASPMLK

T8 sequence (P41145 whole entry): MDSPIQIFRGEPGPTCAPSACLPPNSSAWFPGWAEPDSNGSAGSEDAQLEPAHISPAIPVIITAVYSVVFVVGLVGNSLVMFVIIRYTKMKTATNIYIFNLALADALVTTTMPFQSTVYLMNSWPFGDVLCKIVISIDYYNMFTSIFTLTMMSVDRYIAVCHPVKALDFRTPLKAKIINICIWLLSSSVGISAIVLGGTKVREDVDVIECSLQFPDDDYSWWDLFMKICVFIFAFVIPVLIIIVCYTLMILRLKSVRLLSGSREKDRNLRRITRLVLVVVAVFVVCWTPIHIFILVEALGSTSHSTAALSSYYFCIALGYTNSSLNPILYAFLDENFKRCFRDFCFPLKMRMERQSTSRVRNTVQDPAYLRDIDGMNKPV
T4 sequence (P41143 whole entry): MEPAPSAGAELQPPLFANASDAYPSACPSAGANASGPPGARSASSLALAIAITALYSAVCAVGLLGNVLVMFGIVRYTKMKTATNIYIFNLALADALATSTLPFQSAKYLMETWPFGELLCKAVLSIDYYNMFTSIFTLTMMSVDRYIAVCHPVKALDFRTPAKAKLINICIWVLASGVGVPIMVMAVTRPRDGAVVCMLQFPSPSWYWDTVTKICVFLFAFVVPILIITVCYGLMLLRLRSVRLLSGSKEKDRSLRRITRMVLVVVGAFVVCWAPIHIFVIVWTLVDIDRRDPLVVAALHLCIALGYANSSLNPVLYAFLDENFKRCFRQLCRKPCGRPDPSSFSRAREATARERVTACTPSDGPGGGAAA
T5 sequence (Q8VNN2 whole entry): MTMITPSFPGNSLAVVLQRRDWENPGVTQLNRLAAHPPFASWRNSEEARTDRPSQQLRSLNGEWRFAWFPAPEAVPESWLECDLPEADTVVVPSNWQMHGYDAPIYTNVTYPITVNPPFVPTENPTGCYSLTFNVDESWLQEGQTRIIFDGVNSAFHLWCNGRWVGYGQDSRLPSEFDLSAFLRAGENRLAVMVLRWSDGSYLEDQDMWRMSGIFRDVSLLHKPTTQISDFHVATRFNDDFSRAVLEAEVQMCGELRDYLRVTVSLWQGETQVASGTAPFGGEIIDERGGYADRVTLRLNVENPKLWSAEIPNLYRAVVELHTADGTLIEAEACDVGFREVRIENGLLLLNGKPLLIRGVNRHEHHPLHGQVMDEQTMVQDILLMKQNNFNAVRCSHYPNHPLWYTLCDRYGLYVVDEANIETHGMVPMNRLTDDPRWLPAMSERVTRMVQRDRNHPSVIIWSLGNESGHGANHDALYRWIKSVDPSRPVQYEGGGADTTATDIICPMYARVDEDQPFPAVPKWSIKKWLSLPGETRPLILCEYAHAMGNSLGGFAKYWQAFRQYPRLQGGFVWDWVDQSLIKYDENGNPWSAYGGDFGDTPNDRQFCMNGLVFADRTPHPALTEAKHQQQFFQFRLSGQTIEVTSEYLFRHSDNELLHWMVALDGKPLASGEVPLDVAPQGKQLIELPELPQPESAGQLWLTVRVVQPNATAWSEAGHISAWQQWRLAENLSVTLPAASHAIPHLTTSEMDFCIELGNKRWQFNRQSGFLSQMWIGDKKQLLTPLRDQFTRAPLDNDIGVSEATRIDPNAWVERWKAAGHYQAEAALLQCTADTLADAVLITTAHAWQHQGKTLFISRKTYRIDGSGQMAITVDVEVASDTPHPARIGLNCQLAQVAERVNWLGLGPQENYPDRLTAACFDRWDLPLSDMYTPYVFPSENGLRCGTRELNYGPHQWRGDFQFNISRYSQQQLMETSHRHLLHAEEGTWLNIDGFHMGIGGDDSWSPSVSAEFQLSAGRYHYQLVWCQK
Sequence of Epstein-Barr nuclear antigen 1 (P03211 whole entry): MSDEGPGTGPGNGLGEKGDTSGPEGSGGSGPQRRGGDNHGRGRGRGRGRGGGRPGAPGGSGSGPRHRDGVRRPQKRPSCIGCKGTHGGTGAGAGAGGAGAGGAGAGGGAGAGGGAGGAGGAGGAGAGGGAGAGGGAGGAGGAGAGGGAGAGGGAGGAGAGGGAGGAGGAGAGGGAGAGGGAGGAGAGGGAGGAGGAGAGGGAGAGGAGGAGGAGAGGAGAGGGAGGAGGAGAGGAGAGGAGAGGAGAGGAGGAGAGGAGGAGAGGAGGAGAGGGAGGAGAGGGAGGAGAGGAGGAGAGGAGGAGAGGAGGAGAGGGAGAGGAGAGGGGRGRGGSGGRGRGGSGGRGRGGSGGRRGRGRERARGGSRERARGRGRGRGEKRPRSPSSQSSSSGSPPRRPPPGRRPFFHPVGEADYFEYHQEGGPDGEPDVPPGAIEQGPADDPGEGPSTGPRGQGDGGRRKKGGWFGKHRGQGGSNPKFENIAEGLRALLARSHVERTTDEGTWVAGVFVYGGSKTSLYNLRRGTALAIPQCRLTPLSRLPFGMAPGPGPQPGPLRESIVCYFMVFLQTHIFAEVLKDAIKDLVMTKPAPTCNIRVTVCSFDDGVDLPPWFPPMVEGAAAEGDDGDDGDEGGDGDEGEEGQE
Sequence of Mu-type opioid receptor (P35372 whole entry): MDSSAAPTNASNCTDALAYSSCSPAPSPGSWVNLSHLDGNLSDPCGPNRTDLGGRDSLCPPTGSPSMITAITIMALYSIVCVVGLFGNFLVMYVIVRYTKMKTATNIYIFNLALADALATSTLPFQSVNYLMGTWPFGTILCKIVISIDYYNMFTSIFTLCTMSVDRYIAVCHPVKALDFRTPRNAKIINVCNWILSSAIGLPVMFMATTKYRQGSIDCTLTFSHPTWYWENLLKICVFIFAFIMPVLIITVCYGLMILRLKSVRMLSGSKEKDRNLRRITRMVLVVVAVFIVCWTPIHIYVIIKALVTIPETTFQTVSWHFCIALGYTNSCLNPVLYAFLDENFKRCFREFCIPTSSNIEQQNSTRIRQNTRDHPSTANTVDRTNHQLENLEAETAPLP
Sequence of Sphingosine 1-phosphate receptor 1 (P21453 whole entry): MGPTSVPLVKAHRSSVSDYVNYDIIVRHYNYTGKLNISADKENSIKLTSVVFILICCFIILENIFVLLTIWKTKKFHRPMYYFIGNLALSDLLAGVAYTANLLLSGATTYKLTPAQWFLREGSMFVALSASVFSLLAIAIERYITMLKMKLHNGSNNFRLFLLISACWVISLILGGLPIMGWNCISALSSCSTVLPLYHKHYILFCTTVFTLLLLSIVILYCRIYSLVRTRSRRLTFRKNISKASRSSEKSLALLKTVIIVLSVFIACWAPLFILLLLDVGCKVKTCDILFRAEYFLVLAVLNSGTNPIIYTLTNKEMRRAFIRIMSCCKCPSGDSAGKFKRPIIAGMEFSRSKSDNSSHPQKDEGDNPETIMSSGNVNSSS
Sequence of Sphingosine 1-phosphate receptor 3 (Q99500 whole entry): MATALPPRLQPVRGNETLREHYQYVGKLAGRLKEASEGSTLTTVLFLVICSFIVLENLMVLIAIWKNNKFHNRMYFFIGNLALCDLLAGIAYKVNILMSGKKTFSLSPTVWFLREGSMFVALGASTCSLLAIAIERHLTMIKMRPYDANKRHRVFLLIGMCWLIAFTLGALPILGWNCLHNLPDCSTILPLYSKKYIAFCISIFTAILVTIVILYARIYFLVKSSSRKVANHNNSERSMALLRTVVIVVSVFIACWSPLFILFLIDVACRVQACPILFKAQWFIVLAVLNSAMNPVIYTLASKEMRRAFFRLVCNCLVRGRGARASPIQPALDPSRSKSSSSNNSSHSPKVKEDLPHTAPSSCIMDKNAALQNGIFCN
Sequence of Luciferin 4-monooxygenase (P08659 whole entry): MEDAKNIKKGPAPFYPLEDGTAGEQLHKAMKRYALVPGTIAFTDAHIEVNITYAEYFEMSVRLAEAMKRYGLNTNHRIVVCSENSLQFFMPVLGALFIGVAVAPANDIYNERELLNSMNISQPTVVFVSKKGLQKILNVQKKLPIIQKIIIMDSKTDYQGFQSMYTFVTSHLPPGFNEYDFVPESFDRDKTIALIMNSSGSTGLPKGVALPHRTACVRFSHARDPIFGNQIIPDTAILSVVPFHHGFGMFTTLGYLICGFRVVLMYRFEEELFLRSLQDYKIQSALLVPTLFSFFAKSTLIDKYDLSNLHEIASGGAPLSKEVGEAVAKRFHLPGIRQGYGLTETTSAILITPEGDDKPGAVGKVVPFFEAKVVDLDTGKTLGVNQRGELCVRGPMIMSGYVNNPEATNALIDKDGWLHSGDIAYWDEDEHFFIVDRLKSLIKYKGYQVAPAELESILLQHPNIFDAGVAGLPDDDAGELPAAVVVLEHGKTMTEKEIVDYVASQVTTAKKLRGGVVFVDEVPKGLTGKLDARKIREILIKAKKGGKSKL
Sequence of Lytic switch protein BZLF1 (P03206 whole entry, the tested form may be a part): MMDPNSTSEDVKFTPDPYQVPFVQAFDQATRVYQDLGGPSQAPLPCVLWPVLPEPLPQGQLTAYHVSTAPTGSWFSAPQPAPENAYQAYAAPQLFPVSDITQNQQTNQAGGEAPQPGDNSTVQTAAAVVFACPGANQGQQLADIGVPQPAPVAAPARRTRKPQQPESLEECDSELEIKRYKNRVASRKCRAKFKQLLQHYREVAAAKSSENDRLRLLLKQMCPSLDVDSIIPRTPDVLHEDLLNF
Sequence of Sphingosine 1-phosphate receptor 2 (O95136 whole entry): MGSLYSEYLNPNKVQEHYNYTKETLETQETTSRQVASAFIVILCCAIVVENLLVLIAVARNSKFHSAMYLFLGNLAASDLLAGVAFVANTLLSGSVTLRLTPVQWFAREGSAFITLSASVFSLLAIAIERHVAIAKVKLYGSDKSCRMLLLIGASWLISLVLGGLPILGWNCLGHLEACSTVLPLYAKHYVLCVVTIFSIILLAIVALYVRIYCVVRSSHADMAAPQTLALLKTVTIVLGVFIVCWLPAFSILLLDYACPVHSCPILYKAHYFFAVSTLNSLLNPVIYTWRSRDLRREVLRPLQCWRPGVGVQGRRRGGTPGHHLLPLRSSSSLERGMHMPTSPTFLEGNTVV

COc1ccc2nc(-c3ccc(N)cc3)[nH]c2c1
EC50 [1]: 0.38 µM (active) | AC50 [2]: 35.1 µM (active)

COc1ccc2oc(C(=O)Nc3nccs3)c(C)c2c1
IC50 [3]: 21 µM (not active) | IC50 [4]: > 111 µM (not active) | EC50 [5]: > 67.5 µM (inactive)

Cc1ccc(-c2cc(C(=O)NC3CCCCC3)no2)cc1
EC50 [6]: > 10 µM (not active) | EC50 [7]: 0.194 µM (active) | EC50 [8]: > 50 µM (not active)

COC(=O)c1ccc2c(=O)n(CCCC(=O)N3CCN(c4cccc(Cl)c4)CC3)c(=S)[nH]c2c1
IC50 [9]: 18.7 µM (not active)

Cc1ccc(S(=O)(=O)Nc2cccc3cccnc23)c([N+](=O)[O-])c1
IC50 [10]: > 32 µM (inactive) | EC50 [11]: > 32 µM (inactive) | EC50 [12]: 0.707 µM (active) | EC50 [13]: > 32 µM (inactive) | CC50 [14]: 5.64 µM (active) | EC50 [15]: > 40 µM (inactive) | CC50 [16]: 5.79 µM (active) | EC50 [17]: > 150 µM (not active) | IC50 [18]: 8.21 µM (active) | EC50 [19]: > 120 µM (not active) | IC50 [20]: 5.55 µM (active) | EC50 [21]: > 31.5 µM (inactive) | pIC50 [22]: < 4.49 | EC50 [23]: 17.4 µM (active) | IC50 [24]: 18.4 µM (active) | CC50 [25]: 7.85 µM (active)

O=C(N/N=C/c1ccc(O)cc1)Nc1cccc2nsnc12
CC50 [26]: > 50 µM (active) | EC50 [27]: 0.356 µM (active) | IC50 [28]: 2.51 µM (active) | EC50 [29]: 10.8 µM (active) | IC50 [30]: 63.5 µM (active)
